Measured values reported in patent publication US6825223B2, “Anilide compounds and pharmaceutical compositions comprising them” (Kowa Company, Ltd., priority 1996, dated 2004).

Key:
[1] = biological target: T1, ACAT in J774 cell (Mus musculus, UniProt Q61263); test: ACAT inhibiting activity in J774 cell (anti-foaming activity); assay type: cell-based; conditions: for IC50 (HepG 2)/IC50 (J 774): ratio of the two cell IC50 values; for IC50: J774 cell, 10 μg/ml 25-OH cholesterol, 18 hours, cholesterol ester per protein, read-out: J 774 Cell-Derived Enzyme IC50
T1 construct: endogenous in cells; host or cells: J774 cells
T1 sequence (Q61263 1-540): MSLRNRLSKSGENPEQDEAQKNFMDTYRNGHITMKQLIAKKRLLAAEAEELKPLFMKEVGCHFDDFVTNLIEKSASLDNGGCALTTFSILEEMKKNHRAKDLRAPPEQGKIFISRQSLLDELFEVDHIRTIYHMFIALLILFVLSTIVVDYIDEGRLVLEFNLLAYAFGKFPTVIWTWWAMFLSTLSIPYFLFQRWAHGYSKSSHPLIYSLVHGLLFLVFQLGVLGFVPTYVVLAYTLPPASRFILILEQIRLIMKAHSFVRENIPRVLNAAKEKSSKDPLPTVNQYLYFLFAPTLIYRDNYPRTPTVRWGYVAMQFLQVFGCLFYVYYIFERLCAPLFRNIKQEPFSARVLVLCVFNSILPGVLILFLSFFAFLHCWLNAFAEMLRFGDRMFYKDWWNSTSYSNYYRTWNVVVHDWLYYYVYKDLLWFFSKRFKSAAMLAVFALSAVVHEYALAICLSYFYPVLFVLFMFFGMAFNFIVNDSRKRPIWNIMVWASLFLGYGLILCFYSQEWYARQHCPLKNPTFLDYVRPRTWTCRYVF
Protocol: (§1) ACAT inhibiting activities in J774 cell and HepG2 cell (Anti-foaming activities).
(§2) J774 cell and HepG2 cell were sown on 24-holes-plates, and J774 cell was cultured with DMEM culturing solution (including 10% fetal bovine serum) and HepG2 cell was cultured with MEM culturing solution (including 10% fatal bovine serum) and they were incubated with 5% CO2 at 37° C. for 24 hours. […] After redwing the medium, each cultured cell was washed with PBS two ties, and then extracted with 1.5 ml of hexane:iso-propanol (3:2), and concentrated and dried. Each extracted substance was dissolved into iso-propanol including 0.2 ml of 10% Triton X-100. And total cholesterol (TC) of each was measured with Cholesterol E Test Wako (Wako Junyaku Co.), and free cholesterol […] of each was measured with Free Cholesterol E Test Wako (Wako Junyaku Co.). The residue of extracting was dissolved with 0.25 ml of 2N NaOH at 37° C. for 30 minutes, and an amount of protein was measured with BCA Protein Assay Reagent (Pierce). The amount of cholesterol ester per protein was calculated based on a difference between TC and FC, and IC50 was calculated in contrast with control.

[2] = biological target: T2, ACAT (small intestine-derived enzyme) (Oryctolagus cuniculus, UniProt G1SFD9); test: ACAT inhibiting activity, small intestine-derived enzyme liquid; assay type: biochemical, rabbit; conditions: small intestines of rabbits fed ordinary feed; 14C-oleoyl-CoA; 37° C. 3 minutes
T2 sequence (G1SFD9 1-524): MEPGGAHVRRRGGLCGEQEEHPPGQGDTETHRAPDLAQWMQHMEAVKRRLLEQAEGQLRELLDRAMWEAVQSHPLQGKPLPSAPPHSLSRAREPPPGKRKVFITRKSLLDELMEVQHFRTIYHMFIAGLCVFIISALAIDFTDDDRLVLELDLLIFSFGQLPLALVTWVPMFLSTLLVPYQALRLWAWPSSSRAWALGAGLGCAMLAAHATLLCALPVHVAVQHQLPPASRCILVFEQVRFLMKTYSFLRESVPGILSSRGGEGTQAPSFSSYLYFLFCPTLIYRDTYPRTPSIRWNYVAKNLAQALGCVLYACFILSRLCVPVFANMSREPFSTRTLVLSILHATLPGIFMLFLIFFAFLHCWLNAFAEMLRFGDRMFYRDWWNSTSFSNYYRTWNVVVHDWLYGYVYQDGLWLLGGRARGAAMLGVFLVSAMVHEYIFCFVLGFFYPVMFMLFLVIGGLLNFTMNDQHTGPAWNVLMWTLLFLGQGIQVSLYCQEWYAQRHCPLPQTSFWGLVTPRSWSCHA
Protocol: (§3) Rabbits were fed with 1% cholesterol feed for 8 weeks. Microsomes were prepared from the thoracoaorta of the rabbits in an ordinary manner, and suspended in 0.15 M phosphate buffer (pH 7.4) to prepare blood vessel wall-derived enzyme liquids, Small intestine-derived enzyme liquids were prepared from the small intestines of rabbits fed with ordinary feed. […] 10 μl of the enzyme liquid was added to the resulting solution and reacted at 37° C. for 5 minutes (for small intestine-derived enzyme liquids, for 3 minutes), and thereafter 3 ml of chloroform/methanol (2/1) and 0.5 ml of 0.04 N HCl were added thereto to stop the reaction. After the reaction, lipids were extracted from the reaction mixtures. The solvent layer was concentrated to dryness, then dissolved in hexane, spotted on a TLC plate (produced by Merck), and developed thereon with a developer of hexane/ether/acetic acid (75/25/1) The radioactivity of the thus-fractionated cholesterol ester fraction was measured with BAS2000 (produced by Fuji Film).

[3] = tested on: ACAT in HepG2 cell; test: ACAT inhibiting activity in HepG2 cell; assay type: cell-based; conditions: 10 μg/ml 25-OH cholesterol, 18 hours, cholesterol ester per protein, read-out: HepG 2-Derived Enzyme IC50
Protocol: as §1, §2

[4] = biological target: ACAT (blood vessel wall-derived enzyme) (Oryctolagus cuniculus, UniProt G1SUQ0); test: ACAT inhibiting activity, blood vessel wall-derived enzyme liquid (thoracoaorta microsomes); assay type: biochemical, rabbit; conditions: microsomes from thoracoaorta of rabbits fed 1% cholesterol feed; 14C-oleoyl-CoA; 37° C. 5 minutes
ACAT (blood vessel wall-derived enzyme), sequence (G1SUQ0 entry or part of it): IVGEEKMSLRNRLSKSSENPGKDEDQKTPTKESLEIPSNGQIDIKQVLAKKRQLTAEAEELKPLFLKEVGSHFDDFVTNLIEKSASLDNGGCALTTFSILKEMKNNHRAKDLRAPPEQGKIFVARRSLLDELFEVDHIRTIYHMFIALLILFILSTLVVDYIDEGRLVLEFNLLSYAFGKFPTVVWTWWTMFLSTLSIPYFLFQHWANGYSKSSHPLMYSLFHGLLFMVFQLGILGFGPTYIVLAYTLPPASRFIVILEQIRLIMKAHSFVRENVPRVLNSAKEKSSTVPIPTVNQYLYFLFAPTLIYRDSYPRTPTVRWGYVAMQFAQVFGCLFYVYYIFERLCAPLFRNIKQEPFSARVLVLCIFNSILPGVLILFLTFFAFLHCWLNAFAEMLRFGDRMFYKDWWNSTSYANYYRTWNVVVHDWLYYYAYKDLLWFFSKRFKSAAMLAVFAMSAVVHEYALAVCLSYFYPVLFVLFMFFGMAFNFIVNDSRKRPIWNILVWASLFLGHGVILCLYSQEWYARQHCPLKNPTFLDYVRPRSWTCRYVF
Protocol: as §3

[5] = Deterioration action of cholesterol in plasma, F1B hamster on hyperfat foods; assay type: in vivo, BIO F1B hybrid syrian hamster; conditions: for inhibiting an increase (%): 4th week, against hyperfat and ordinal foods groups; for Total Cholestrol in Plasma, At the 4th Week: fed 4 weeks
Protocol: A deterioration action of cholesterol in plasma was tested with BIO F1B hybrid syrian hamster (Mark C. K. et al., Atheorosclerosis, 91 (1991) 35-49: abbreviated as FIB hamster in the following) which has an accumulation of Cholesterol in blood vessel by cholesterol load. That is 4 groups of FIB hamster (male, 8 weeks old, about 100 g weight) were made, which had five hamsters respectively, and the hamsters were fed with the below-described feeds corresponding to each group for 4 weeks. At the 4th week from beginning feed, blood of the hamsters were drawn from their jugulars; and values of total cholesterols in plasma were measured with the enzyme method.

[6] = group (3): 0.03% compound added to hyperfat foods
[7] = group (4): 0.3% compound added to hyperfat foods

Compound | IC50 (HepG 2)/IC50 (J 774) [1] | IC50 [2] [nM] | IC50 [1] [nM] | IC50 [3] [nM] | other results
CC(C)c1cccc(C(C)C)c1NC(=O)C(C)(C)CCCOc1ccc2c(c1)C=C(c1nccn1C)C(CCc1ccc(F)cc1)O2 (stereo not shown) [Control (1), 5-[2-(2-(4-fluorophenyl)ethyl)-3-(1-methyl-1H-imidazol-2-yl) -2H-benzopyran-6-yl]oxy-2,2-dimethyl-N-(2,6-diisopropylphenyl)pentanamide, reference compound] | 9.46 | 870 | – | – | –
CCCCCCCCCCCCCCSCC(=O)Nc1c(C(C)C)cccc1C(C)C [Control (2), N-(2,6-diisopropylphenyl) -2-(tetradecylthio)acetamide, reference compound] | – | – | 150 | 1400 | –
CCCCCCCN(CCCCCSc1nc(-c2ccccc2)c(-c2ccccc2)[nH]1)c1nc2ccccc2o1 [Control (4), N4-[5-(4,5-diphenyl-1H-imidazol-2-ylthio)pentyl]-N-heptyl-2-benzoxazolamine, reference compound] | 6.26 | 37 | 120 | – | IC50 [4]: 26 nM
CC(C)c1cccc(C(C)C)c1NC(=O)CSc1nc2ccccc2o1 [Example 1, 2-(benzoxazol-2-ylthio)-N-(2,6-diisopropylphenyl)acetamide] | 0.83 | – | 1200 | 1000 | –
CC(C)c1cccc(C(C)C)c1NC(=O)CCSc1nc2ccccc2o1 [Example 2, 3-(benzoxazol-2-ylthio)-N-(2,6-diisopropylphenyl)propanamide] | 2.55 | – | 470 | 1200 | –
CC(C)c1cccc(C(C)C)c1NC(=O)CCCCCSc1nc2ccccc2o1 [Example 5, 6-(benzoxazol-2-ylthio)-N-(2,6-diisopropylphenyl)hexanamide] | – | 65 | – | – | IC50 [4]: 10 nM
CC(C)c1cccc(C(C)C)c1NC(=O)CCCCCCCCSc1nc2ccccc2o1 [Example 8, 9-(benzoxazol-2-ylthio)-N-(2,6-diisopropylphenyl)nonanamide] | – | – | – | – | inhibiting an increase (%) [5, 6]: 80.5%; Total Cholestrol in Plasma, Before Dosage [5, 6]: 155.5 ± 10.1 mg/dL; Total Cholestrol in Plasma, At the 4th Week [5, 6]: 398.3 ± 64.3 mg/dL; inhibiting an increase (%) [5, 7]: 111.7%; Total Cholestrol in Plasma, Before Dosage [5, 7]: 164.3 ± 8.8 mg/dL; Total Cholestrol in Plasma, At the 4th Week [5, 7]: 170.1 ± 18.5 mg/dL
CC(C)c1cccc(C(C)C)c1NC(=O)CSc1nc2ccccc2[nH]1 [Example 23, 2-(benzimidazol-2-ylthio)-N-(2,6-diisopropylphenyl)acetamide] | 6.45 | – | 2200 | 12000 | –
CC(C)c1cccc(C(C)C)c1NC(=O)CCCSc1nc2ccccc2s1 [Example 44, 4-(benzothiazol-2-ylthio)-N-(2,6-diisopropylphenyl)butanamide] | 0.38 | – | 5600 | 2100 | –
